We go through 2 molecules from the NIST ThermoML archive (doi:10.1021/acs.jced.8b00855).

For series [1] the following is noted: Liquid, Ebulliometric method (Recirculating still).
A short description of series [2]: Boiling temperature at pressure P. Particulars: Liquid, Ebulliometric method (Recirculating still).

Each structure is given as a SMILES string. ± gives the expanded uncertainty stated by the source.

For the molecule `OC1CCCC1` [cyclopentanol], the “vapor or sublimation pressure” value stood at 71.5 ± 2.7 kPa in series [1] (403.4 K); 77.95 ± 2.8 kPa in series [1] (405.8 K); 85.5 ± 2.9 kPa in series [1] (408.4 K); 89.69 ± 3.3 kPa in series [1] (409.8 K); 101.79 ± 3.4 kPa in series [1] (413.4 K). Also, the “Boiling temperature at pressure P” value in series [2] (71.47 kPa) amounted to 130.2 ± 1 °C; in series [2] (78.36 kPa) it was 133.1 ± 1 °C; in series [2] (85.5 kPa), 135.5 ± 1 °C; in series [2] (89.49 kPa), 136.2 ± 1 °C; in series [2] (102 kPa) it was 140.5 ± 1 °C.

Regarding `COC1CCCC1` [methoxycyclopentane], the “vapor or sublimation pressure” value in series [1] (367.9 K) was 71.5 ± 2.4 kPa; in series [1] (370.6 K), 77.95 ± 2.5 kPa; in series [1] (373.6 K), 85.5 ± 2.6 kPa; in series [1] (375.1 K), 89.69 ± 2.9 kPa; in series [1] (379.3 K), 101.79 ± 2.9 kPa. In addition, the “Boiling temperature at pressure P” value in series [2] (72.04 kPa) amounted to 95.1 ± 1 °C; in series [2] (78.83 kPa), 98.1 ± 1 °C; in series [2] (85.94 kPa) it was 100.2 ± 1 °C; in series [2] (89.82 kPa), 102.2 ± 1 °C; in series [2] (101.39 kPa), 106.1 ± 1 °C.

What is called vapor or sublimation pressure is the pressure of vapour in equilibrium with the condensed phase.
